In patent US20120315303A1, “METHODS AND INTRAVASCULAR TREATMENT DEVICES USING PACLITAXEL FOR TREATMENT OF ATHEROSCLEROSIS” (Medtronic Vascular, Inc., priority 2011, published 2012):

What was measured:
Format in all cases: cell-based
Thrombospondin-3 = experiment: qRT-PCR Thrombospondin-3 expression in drug-treated, inflammatory cocktail stimulated SFA smooth muscle cells; details: quiescent SFA smooth muscle cells stimulated with FBS, TGF Beta and IL1beta, FIG. 14F
Experimental: (§1) FIG. 14 depicts differential effect of paclitaxel versus the Limus family of drugs on expression of cell cycle, proliferation and ECM target genes in SFA smooth muscle cells. Quiescent SFA smooth muscle cells were treated with of Paclitaxel, Zotarolimus or Sirolimus then stimulated with inflammatory cocktail consisting of FBS, TGF Beta and IL1beta. Relative gene expression levels were determined by qRT-PCR for each drug treated arm as calibrated against the unstimulated baseline control for (A) BTG2, (B) KLF4, (C) PEDF, (D) Endothelin-1, (E) Thrombospondin-1, and (F) Thrombospondin-3.
(§2) In a similar manner, the expression of Thrombospondin-1 and Thrombospondin-3 is inhibited by paciltaxel but not by sirolimus and zotarolimus. Taken together the data with regards to the differential effects of commercially employed, anti-proliferative drugs, such as paciltaxel and drugs of the limus family, on the expression of SFA disease target genes can highlight/point to wards the most beneficial therapeutic mode of application and treatment.

CTGF [1] = experiment: Western blot of CTGF protein in drug-treated SFA derived smooth muscle cells; details: SFA derived smooth muscle cells stimulated with Colchicinne or Angiotensin II, FIG. 13D
Experimental: (§3) FIG. 13 depicts effects of paclitaxel on cellular morphology, gene and protein expression. (A and B) SFA smooth muscle cells from normal donor tissue were treated with Paclitaxel, Everolimus or Sirolimus. Gene expression levels were determined by qRT-PCR for each drug arm calibrated against unstimulated control for (A) CDKN1A and (C) CTGF. (B) SMCs were exposed to Sirolimus or Paclitaxel, fixed and stained with Actin (red) and Ki67 (green). (D) SFA derived smooth muscle cells were treated with Paclitaxel, Everolimus or Sirolimus then stimulated with Colchicinne (CTGF a) or Angiotensin II (CTGF b). Protein levels were detected by western blot using antibodies against CTGF and beta actin. One representative blot of three replicates shown.
(§4) Obtaining samples from SFA arteries allowed us to generate SFA derived-smooth muscle cells and to examine the expression of genes of interest as ide12tified in the disease atherectomy samples. In particularly we investigated the transcriptional response to anti-proliferative drugs, e.g. paclitaxel and drugs from the limus family such as sirolimus, everolimus or zotarolimus. These drugs are currently employed in combination devices indicated for the treatment of coronary and peripheral disease, including drug eluting stents and drug eluting balloons. […]

KLF4 = experiment: qRT-PCR KLF4 expression in drug-treated, inflammatory cocktail stimulated SFA smooth muscle cells; details: quiescent SFA smooth muscle cells stimulated with FBS, TGF Beta and IL1beta, FIG. 14B
Experimental: as §1
(§5) Since the limus drugs have been known to affect the signaling via their effect on cell cycle inhibitors (CDKN1A and CDKN1B), we next studied their effects on the pertinent proliferative disease targets identified in this study. Specifically, we looked at BTG2, KLF4 and PEDF (FIGS. 14A, 14B, and 14C, respectively). […] The limus drugs, sirolimus and zotarolimus induced the expression of BTG2, KLF4 cell cycle inhibitors, but not of the proliferation PEDF inhibitor, which are previously unknown actions for these drugs.

Endothelin-1 = experiment: qRT-PCR Endothelin-1 expression in drug-treated, inflammatory cocktail stimulated SFA smooth muscle cells; details: quiescent SFA smooth muscle cells stimulated with FBS, TGF Beta and IL1beta, FIG. 14D
Experimental: as §1, §2

SFA smooth muscle cells = experiment: Actin and Ki67 staining of drug-exposed SMCs (cellular morphology); details: SMCs fixed and stained with Actin and Ki67; FIG. 13B
Experimental: as §3, §4

Cathepsin S = experiment: In vitro Cathepsin S expression
CDKN1A = experiment: qRT-PCR CDKN1A gene expression in drug-treated SFA smooth muscle cells; details: SFA smooth muscle cells from normal donor tissue; qRT-PCR calibrated against unstimulated control; FIG. 13A
Experimental: as §3, §4

Thrombospondin-1 = experiment: qRT-PCR Thrombospondin-1 expression in drug-treated, inflammatory cocktail stimulated SFA smooth muscle cells; details: quiescent SFA smooth muscle cells stimulated with FBS, TGF Beta and IL1beta, FIG. 14E
Experimental: as §1, §2

BTG2 = experiment: qRT-PCR BTG2 expression in drug-treated, inflammatory cocktail stimulated SFA smooth muscle cells; details: quiescent SFA smooth muscle cells stimulated with FBS, TGF Beta and IL1beta, FIG. 14A
Experimental: as §1, §5

PEDF = experiment: qRT-PCR PEDF expression in drug-treated, inflammatory cocktail stimulated SFA smooth muscle cells; details: quiescent SFA smooth muscle cells stimulated with FBS, TGF Beta and IL1beta, FIG. 14C
Experimental: as §1, §5

CTGF [2] = experiment: qRT-PCR CTGF gene expression in drug-treated SFA smooth muscle cells; details: qRT-PCR calibrated against unstimulated control, FIG. 13C
Experimental: as §3, §4

| SMILES | Thrombospondin-3 gene expression (Thrombospondin-3; listed as paciltaxel) | Thrombospondin-3 gene expression (Thrombospondin-3; listed as paclitexel) | CTGF protein levels (CTGF [1]) | KLF4 gene expression (KLF4) | Endothelin-1 gene expression (Endothelin-1; listed as paciltaxel) | Endothelin-1 gene expression (Endothelin-1; listed as paclitexel) | effect on cellular cytoskeleton / morphology (SFA smooth muscle cells) | Cathepsin S expression (Cathepsin S) | CDKN1A gene expression (CDKN1A) | Thrombospondin-1 gene expression (Thrombospondin-1; listed as paciltaxel) | Thrombospondin-1 gene expression (Thrombospondin-1; listed as paclitexel) | BTG2 gene expression (BTG2) | PEDF gene expression (PEDF) | CTGF gene expression (CTGF [2]) | CTGF gene expression (CTGF [2]; listed as paclitexel) | Endothelin-1 gene expression (Endothelin-1) |
| --- | --- | --- | --- | --- | --- | --- | --- | --- | --- | --- | --- | --- | --- | --- | --- | --- |
| CC(=O)O[C@H]1C(=O)[C@@]2(C)[C@H]([C@H](OC(=O)c3ccccc3)[C@]3(O)C[C@H](OC(=O)[C@H](O)[C@@H](NC(=O)c4ccccc4)c4ccccc4)C(C)=C1C3(C)C)[C@]1(OC(C)=O)CO[C@@H]1C[C@@H]2O (relative stereo) [Paclitaxel, (1S,2S,3R,4S,7R,9S,10S,12R,15S)-4,12-Diacetoxy-15-{[(2R,3S)-3-(benzoylamino)-2-hydroxy-3-phenylpropanoyl]oxy}-1,9-dihydroxy-10,14,17,17-tetramethyl-11-oxo-6-oxatetracyclo[11.3.1.0˜3, 10˜.0˜4,7˜]heptadec-13-en-2-yl rel-benzoate] | inhibited | substantially down regulated | reduced | up regulated | slightly inhibited | substantially down regulated | disrupting cellular cytoskeleton | induces | does not affect | inhibited | substantially down regulated | up regulated | up regulated | substantial down regulation | substantially down regulated | – |
| CO[C@H]1C[C@@H]2CC[C@@H](C)[C@@](O)(O2)C(=O)C(=O)N2CCCC[C@H]2C(=O)O[C@H]([C@H](C)C[C@@H]2CC[C@@H](OCCO)[C@H](OC)C2)CC(=O)[C@H](C)/C=C(\C)[C@@H](O)[C@@H](OC)C(=O)[C@H](C)C[C@H](C)/C=C/C=C/C=C/1C [everolimus] | – | – | – | – | – | – | – | – | up regulating | – | – | – | – | – | – | – |
| CO[C@H]1C[C@@H]2CC[C@@H](C)[C@@](O)(O2)C(=O)C(=O)N2CCCC[C@H]2C(=O)O[C@H]([C@H](C)C[C@@H]2CC[C@H](n3cnnn3)[C@H](OC)C2)CC(=O)[C@H](C)/C=C(\C)[C@@H](O)[C@@H](OC)C(=O)[C@H](C)C[C@H](C)/C=C/C=C/C=C/1C [zotarolimus] | – | – | – | induced | – | – | – | – | – | – | – | induced | – | – | – | substantially upregulated |
